Test results: ChEMBL document CHEMBL1121780, “Synthesis and antiarrhythmic activity of new benzofuran derivatives” (J Med Chem, 1981)
Where “and” joins values, the source holds several entries; their conditions need not be identical. Equal entries are not always repeated. Calls of active or inactive are those of the source. No cut-off for these calls is given here.

Tests used:
Canis familiaris [1] = organism: Canis familiaris; experiment: Activity against ouabain-induced ventricular arrhythmia was measured as percent of sinus rhythm recovery; Inactive; format: functional, organism-based; details: Canis lupus familiaris; Cardiac ventricle
[2] = Toxicity estimated in mouse as LD50 by intravenous administration; format: organism-based; details: in vivo
Canis familiaris [3] = experiment: Activity against harris coronary ligation induced ventricular arrhythmia was measured as percent of final sinus complexes after dose 2 mg/kg iv; format: functional, Canis lupus familiaris, Cardiac ventricle
Canis familiaris [4] = experiment: Activity against harris coronary ligation induced ventricular arrhythmia was measured as percent of final sinus complexes after dose 5 mg/kg iv; format: functional, Canis lupus familiaris, Cardiac ventricle
Canis familiaris [5] = experiment: Activity against harris coronary ligation induced ventricular arrhythmia was measured as percent of initial sinus complexes after dose 5 mg/kg iv; format: functional, Canis lupus familiaris, Cardiac ventricle
Canis familiaris [6] = experiment: Activity against harris coronary ligation induced ventricaulr arrhythmia was measured as percent of initial sinus complexes after dose 12.5 mg/kg po; format: functional, Canis lupus familiaris
Canis familiaris [7] = experiment: Activity against harris coronary ligation induced ventricular arrhythmia was measured as percent of final sinus complexes after dose 2 mg/kg, po; format: functional, Canis lupus familiaris, Cardiac ventricle
Canis familiaris [8] = experiment: Activity against harris coronary ligation induced ventricular arrhythmia was measured as percent of final sinus complexes after dose 20 mg/kg, po; format: functional, Canis lupus familiaris, Cardiac ventricle
Canis familiaris [9] = experiment: (§1) Activity against harris coronary ligation induced ventricular arrhythmia was measured as percent of final sinus complexes after dose 12.5 mg/kg, po; format: functional, Canis lupus familiaris, Cardiac ventricle
Canis familiaris [10] = experiment: Activity against ouabain-induced ventricular arrhythmia was measured as percent of sinus rhythm recovery at dose of 2 mg/kg iv; format: functional, Canis lupus familiaris, Cardiac ventricle
Canis familiaris [11] = organism: Canis familiaris; experiment: Duration for the sinus rhythm recovery was measured; format: functional, Canis lupus familiaris
Canis familiaris [12] = experiment: Activity against harris coronary ligation induced ventricular arrhythmia was measured as percent of initial sinus complexes after dose 2 mg/kg po; format: functional, Canis lupus familiaris, Cardiac ventricle
Canis familiaris [13] = experiment: Activity against harris coronary ligation induced ventricular arrhythmia was measured as percent of initial sinus complexes after dose 2 mg/kg, iv; format: functional, Canis lupus familiaris, Cardiac ventricle
Canis familiaris [14] = experiment: as §1; format: functional, Canis lupus familiaris, Cardiac ventricle; remark: listed apart in the source
[15] = Toxicity was estimated in mouse as LD50 by intravenous administration; LD50=1000 (40%); format: organism-based; details: in vivo
Canis familiaris [16] = organism: Canis familiaris; experiment: Activity against ouabain-induced ventricular arrhythmia was measured as percent of sinus rhythm recovery; Estimated as too toxic to be tested; format: functional, organism-based; details: Canis lupus familiaris; Cardiac ventricle
Canis familiaris [17] = experiment: Activity against harris coronary ligation induced ventricular arrhythmia was measured as percent of initial sinus complexes after dose 2 mg/kg iv; format: functional, Canis lupus familiaris, Cardiac ventricle
Canis familiaris [18] = organism: Canis familiaris; experiment: Duration for the antiarrhythmic activity was measured; format: functional, Canis lupus familiaris, Heart
Canis familiaris [19] = experiment: Activity against harris coronary ligation induced ventricular arrhythmia was measured as percent of initial sinus complexes after dose 1 mg/kg iv; Inactive; format: organism-based, Canis lupus familiaris, Cardiac ventricle; design: dose 1 mg/kg; details: dog, in vivo
Canis familiaris [20] = experiment: Activity against ouabain-induced ventricular arrhythmia was measured as percent of sinus rhythm recovery at dose of 1 mg/kg iv; format: functional, Canis lupus familiaris, Cardiac ventricle
Canis familiaris [21] = experiment: Activity against harris coronary ligation induced ventricular arrhythmia was measured as percent of initial sinus complexes after dose mg/kg, iv=2; format: functional, Canis lupus familiaris, Cardiac ventricle
Canis familiaris [22] = experiment: Activity against harris coronary ligation induced ventricular arrhythmia was measured as percent of final sinus complexes after dose mg/kg, iv=2; format: functional, Canis lupus familiaris, Cardiac ventricle
Canis familiaris [23] = experiment: Activity against ouabain-induced ventricular arrhythmia was measured as percent of sinus rhythm recovery at dose of 4 mg/kg iv; format: functional, Canis lupus familiaris, Cardiac ventricle

Row | Structure (SMILES) | SRR (Canis familiaris [1]) | LD50 [2] [mg/kg] | Duration (Canis familiaris [11]) [min] | also measured
1 | CNCCOc1c(NC(=O)NC)c(OC)c2ccoc2c1OC | inactive | 67 |  | 
2 | CNS(=O)(=O)Nc1c(OCCN2CCCCC2)c(OC)c2occc2c1OC | inactive | 39 |  | 
3 | CNC(=O)Nc1c(OCCN2CCCC2)c(OC)c2occc2c1OC [CAROCAINIDE] |  | 88 | 69 | FSC (Canis familiaris [3]): 75%; FSC (Canis familiaris [4]): 100%; ISC (Canis familiaris [5]): 18%; ISC (Canis familiaris [6]): 19% and 12%; FSC (Canis familiaris [7]): 100%; FSC (Canis familiaris [8]): 100%; FSC (Canis familiaris [9]): 95%; SRR (Canis familiaris [10]): 100%; ISC (Canis familiaris [12]): 33%; ISC (Canis familiaris [13]): 15%; FSC (Canis familiaris [14]): 81%
4 | CNC(=O)Nc1c(OCCN2CCC2)c(OC)c2occc2c1OC |  |  | 10 | LD50 [15]: 1000 mg/kg; SRR (Canis familiaris [10]): 100%
5 | CNC(=O)Nc1c(OCCCCN2CCCC2)c(OC)c2occc2c1OC | inactive | 36 |  | 
6 | COc1c(NC(=O)c2ccccc2)c(OCCN2CCCCC2)c(OC)c2occc12 |  | 2.5 |  | SRR (Canis familiaris [16]): Estimated as too toxic to be tested
7 | CCCNC(=O)Nc1c(OCCN2CCCCC2)c(OC)c2occc2c1OC | inactive | 18.5 |  | 
8 | CCNCCOc1c(NC(C)=O)c(OC)c2ccoc2c1OC | inactive | 68 |  | 
9 | CN/C(S)=N/c1c(OCCN2CCCCC2)c(OC)c2occc2c1OC | inactive | 17 |  | 
10 | CCNC(=O)Nc1c(OCCN2CCCCC2)c(OC)c2occc2c1OC |  | 28 | 120 | ISC (Canis familiaris [17]): 25%; FSC (Canis familiaris [3]): 90%; SRR (Canis familiaris [10]): 100%; Duration (Canis familiaris [18]): <30 min
11 | COc1c(NC(=O)C2CCCCC2)c(OCCN2CCCCC2)c(OC)c2occc12 |  | 7 |  | SRR (Canis familiaris [16]): Estimated as too toxic to be tested
12 | CCN(CC)CCCOc1c(NC(=O)NC)c(OC)c2ccoc2c1OC |  | 76 | 15 | SRR (Canis familiaris [10]): 100%
13 | CNC(=O)Nc1cc2ccoc2cc1OCCN1CCCCC1 | inactive | 67 |  | 
14 | CNC(=O)Nc1c(OCC(C)N2CCCCC2)c(OC)c2occc2c1OC (stereo not given) |  | 36 | 60 | SRR (Canis familiaris [10]): 100%
15 | CNC(=O)Nc1c(OCCNC2CCCCC2)c(OC)c2occc2c1OC |  | 9.5 | 120 | ISC (Canis familiaris [19]): Not Active; SRR (Canis familiaris [20]): 100%
16 | CNC(=O)Nc1c(OC)c(OC)c2occc2c1OCCN1CCCCC1 | inactive | 200 |  | 
17 | COc1c(NC(C)=O)c(OCCN(C)C)c(OC)c2occc12 | inactive | 138 |  | 
18 | COc1c(N)c(OCCN2CCCCC2)c(OC)c2occc12 | inactive | 21 |  | 
19 | CCCN(CCC)CCOc1c(NC(=O)NC)c(OC)c2ccoc2c1OC |  | 52 | 45 | ISC (Canis familiaris [21]): 30%; SRR (Canis familiaris [10]): 100%; FSC (Canis familiaris [22]): 37%; Duration (Canis familiaris [18]): 5 min
20 | COc1c(NC(=O)N(C)C)c(OCCN2CCCCC2)c(OC)c2occc12 |  | 25 | 60 | ISC (Canis familiaris [17]): 22%; FSC (Canis familiaris [3]): 52%; Duration (Canis familiaris [18]): 40 min; SRR (Canis familiaris [23]): 50%
21 | COc1c(NC(N)=O)c(OCCN2CCCCC2)c(OC)c2occc12 | inactive | 40 |  | 
22 | CNC(=O)Nc1c(OC)ccc(OC)c1OCCN1CCCCC1 | inactive | 135 |  | 
23 | COc1c(NC(=O)C(C)C)c(OCCN2CCCCC2)c(OC)c2occc12 | inactive | 78 |  | 
24 | CNC(=O)Nc1c(OC(C)CN2CCCCC2)c(OC)c2occc2c1OC (stereo not given) |  | 23 | 15 | SRR (Canis familiaris [20]): 100%
25 | COc1c(NC=O)c(OCCN2CCCCC2)c(OC)c2occc12 |  | 46 | 10 | SRR (Canis familiaris [23]): 100%
26 | COc1c(NC(C)=O)c(OCCNC2CCCCC2)c(OC)c2occc12 |  | 11.5 | <30 | SRR (Canis familiaris [20]): 50%
27 | COc1c(NC(=O)NC(C)C)c(OCCN2CCCCC2)c(OC)c2occc12 | inactive | 25 |  | 
